Measurements as given in patent publication US7888474B2, “HDM2 polypeptides” (Schering Corporation, priority 2007, dated 2011).

How the values were obtained:
HDM2 [1] = target: T1, HDM2 (Homo sapiens, UniProt Q00987); experiment: Fluorescent polarization assay (FAM-labeled p53 peptide ligand competition); assay type: binding; conditions: 10 nM HDM2 protein, 1 nM FAM-labeled p53 peptide ligand, PBS buffer; for Ki: non-linear regression
HDM2 [2] = target: T1, HDM2; experiment: TdF assay (thermal melting with Sypro Orange); assay type: binding; conditions: 6 uM HDM2, 10 mM HEPES pH 7.4, 150 mM NaCl, 1 mM DTT, 10 and 20 uM compound

T1 sequence (Q00987 whole entry): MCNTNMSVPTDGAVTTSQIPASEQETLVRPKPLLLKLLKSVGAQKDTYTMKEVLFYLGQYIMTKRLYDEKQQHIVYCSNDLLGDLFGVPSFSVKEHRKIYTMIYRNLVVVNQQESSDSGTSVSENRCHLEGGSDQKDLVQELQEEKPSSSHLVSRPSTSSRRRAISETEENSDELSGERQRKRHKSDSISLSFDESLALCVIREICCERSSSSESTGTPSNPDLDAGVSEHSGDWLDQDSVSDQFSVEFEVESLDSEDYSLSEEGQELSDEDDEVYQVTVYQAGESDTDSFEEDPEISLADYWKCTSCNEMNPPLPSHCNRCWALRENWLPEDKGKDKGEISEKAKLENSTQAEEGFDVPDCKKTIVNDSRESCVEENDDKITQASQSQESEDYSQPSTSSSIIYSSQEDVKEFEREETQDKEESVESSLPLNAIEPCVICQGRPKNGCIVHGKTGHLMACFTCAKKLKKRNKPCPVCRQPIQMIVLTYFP

SMILES	IC50 (HDM2 [1]) [nM]	Ki (HDM2 [1]) [nM]	Kd (HDM2 [2]) [nM]
O=C(c1cnccc1C(F)(F)F)N1CCCC(Oc2ccc(C(F)(F)F)cc2)(C(=O)N2CCN(c3ccccn3)CC2)C1 (stereo not drawn) [Compound 1]	< 5000	< 2000	< 2000
COCCOc1ccccc1N1CCN(C(=O)[C@]2(Oc3ccc(C(F)(F)F)cc3)CCCN(C(=O)c3cnccc3C(F)(F)F)[C@@H]2C(O)C(C)O)CC1 (stereo partly drawn) [Compound 4]	< 5000	< 2000	< 2000
